Experimental data as given in patent US5476966A, “Method for depletion of glutathione” (Cornell Research Foundation, Inc., priority 1995, dated 1995).

Assays:
glutathione [1] = assay: Tissue glutathione after oral administration of sulfoximines (Table 5); type: in vivo, mouse; conditions: 2 mmol/kg
Method: Male mice (Swiss Webster) were fasted overnight (about 16 hr.) L-buthionine-SR-sulfoximine (BSO, S-n-butyl homocysteine-SR-sulfoximine), L-S-cyclohexylmethyl homocysteine-SR-sulfoximine (CHMSO); L-S-2-ethylbutylhomocysteine-SR-sulfoximine (2 EtBSO, L-S-2-ethylbutyl homocysteine-SR-sulfoximine, or saline (0.9% NaCl) were administered to mice at 2 mmol/Kg by intubation (100 mM; pH about 1 with HCl (200 mM). At the times indicated, plasma and tissues were obtained and assayed for glutathione (GSH+1/2 GSSG) as described by Anderson, Methods in Enzymology, 1985, 113:548-555. (See Table 4 and 5.)

[2] = Detection of compound in mouse bile; type: in vivo
[3] = target: T1, γ-Glutamylcysteine Synthetase (Rattus norvegicus, UniProt P19468); assay: Inhibition of γ-glutamylcysteine synthetase (preincubation assay); type: biochemical; conditions: for Ki: 30 min preincubation, 22° C., read-out: Kiapp, Concentration for 50% Inhibition; for inhibition of γ-glutamylcysteine synthetase (in words): ranking compared with BSO
T1 construct: Rat kidney γ-Glutamylcysteine synthetase was purified from Sprague Dawley (Taconic Farms) rats; from tissue; host or cells: rat kidney (Sprague Dawley, Taconic Farms)
T1 sequence (P19468 1-637): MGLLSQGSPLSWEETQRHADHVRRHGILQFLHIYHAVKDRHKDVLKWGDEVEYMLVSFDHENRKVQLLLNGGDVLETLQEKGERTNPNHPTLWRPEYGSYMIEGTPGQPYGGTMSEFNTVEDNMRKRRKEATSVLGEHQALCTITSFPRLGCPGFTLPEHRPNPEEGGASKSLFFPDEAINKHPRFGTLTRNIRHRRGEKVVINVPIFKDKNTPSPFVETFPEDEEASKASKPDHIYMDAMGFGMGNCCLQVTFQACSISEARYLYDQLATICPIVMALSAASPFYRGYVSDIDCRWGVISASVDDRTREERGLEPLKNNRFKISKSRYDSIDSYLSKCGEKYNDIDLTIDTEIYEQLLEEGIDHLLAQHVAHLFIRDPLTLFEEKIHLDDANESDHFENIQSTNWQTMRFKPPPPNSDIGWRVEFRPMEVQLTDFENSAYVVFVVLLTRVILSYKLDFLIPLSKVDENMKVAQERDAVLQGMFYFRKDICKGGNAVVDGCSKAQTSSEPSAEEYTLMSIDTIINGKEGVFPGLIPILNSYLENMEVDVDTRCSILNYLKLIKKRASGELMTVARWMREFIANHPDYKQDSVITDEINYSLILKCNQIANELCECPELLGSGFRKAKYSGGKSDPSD
T1 sequence (P48508 1-274 partner): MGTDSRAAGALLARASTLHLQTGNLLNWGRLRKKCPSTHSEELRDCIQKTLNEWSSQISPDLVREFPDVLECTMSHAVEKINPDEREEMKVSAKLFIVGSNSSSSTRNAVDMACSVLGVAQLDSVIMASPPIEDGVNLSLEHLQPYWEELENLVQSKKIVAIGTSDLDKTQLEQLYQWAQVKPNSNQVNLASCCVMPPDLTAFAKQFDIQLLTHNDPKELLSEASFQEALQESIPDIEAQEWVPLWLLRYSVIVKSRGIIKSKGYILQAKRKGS
Method: Rat kidney γ-Glutamylcysteine synthetase was purified from Sprague Dawley (Taconic Farms) rats (Seelig., Methods in Enzymology, 1985, 113:379-390).
The preincubation assay of γ-glutamylcysteine synthetase is given below. γ-Glutamylcysteine synthetase (4.6 units) was added to a mixture (final volume, 50 μl) containing 100 mM Tris/HCl (pH 8.2), 5 mM ATP, 20 mM MgCl2, 0.2 mM EDTA, and the sulfoximine being evaluated. After incubation at 22° C. for 30 minutes, a 45 μl aliquot of the preincubation mixture was added to the assay as follows.
γ-Glutamylcysteine synthetase was assayed as follows (Griffith et al, J. Biological Chem., 1979, 254:1205-1210). The reaction mixture (final volume, 1.0 ml) contained 100 mM Tris/HCl (pH 8.2), 120 mM KCl, 5 mM phosphoenolpyruvate, 20 mM MgCl2, 10 mM sodium L-glutamate, 10 mM L-α-aminobutyric acid, 0.2 mM EDTA, 0.4 mM NADH, pyruvate kinase (10 IU), and lactate dehydrogenase (10 IU). The reaction (37° C.) was initiated by the addition of γ-glutamylcysteine synthetase and the oxidation of NADH, equivalent to ADP formation, was recorded at 340 nm.

glutathione [4] = assay: Tissue glutathione levels after intraperitoneal administration of sulfoximines; type: in vivo, mouse; conditions: for % Decrease in glutathione / Glutathione level: 2 mmol/Kg i.p.
Method: Male mice (Swiss Webster) were fasted overnight (about 16 hr). L-3-methylbuthionine-SR-sulfoximine (3 mBSO; L-S-3-methylbutyl homocysteine-SR-sulfoximine; L-S-isopentyl homocysteine-SR-sulfoximine), L-buthionine-SR-sulfoximine(BSO; L-S-butyl homocysteine-SR-sulfoximine), L-2-methylbuthiomine-SR-sulfoximine (2 mBSO, L-S-2methylbutyl homocysteine-SR-sulfoximine), or saline (0.9% NaCl) were administered to mice at 2 mmol/Kg intraperitoneally (50 mM, Ph ^~ 7). At the times indicated, plasma and tissues were obtained and assayed for glutathione (GSH+1/2 GSSG) as described by Anderson, Methods in Enzymology, 1985, 113:548-555.

[5] = test system: mouse L1210 leukemia cells; conditions: cited from earlier work

SMILES | Ki [3] [µM] | inhibition of γ-glutamylcysteine synthetase (in words) [3] | % Decrease in glutathione (glutathione [4]; brain, 2 hr) [%] | Glutathione level (glutathione [4]; brain, 2 hr) [µmol/g] | % Decrease in glutathione (glutathione [4]; brain, 12 hr) [%] | Glutathione level (glutathione [4]; brain, 12 hr) [µmol/g] | % Decrease in glutathione (glutathione [4]; heart, 2 hr) [%] | Glutathione level (glutathione [4]; heart, 2 hr) [µmol/g] | % Decrease in glutathione (glutathione [4]; heart, 12 hr) [%] | Glutathione level (glutathione [4]; heart, 12 hr) [µmol/g] | % Decrease in glutathione (glutathione [4]; kidney, 2 hr) [%] | Glutathione level (glutathione [4]; kidney, 2 hr) [µmol/g] | % Decrease in glutathione (glutathione [4]; kidney, 12 hr) [%] | Glutathione level (glutathione [4]; kidney, 12 hr) [µmol/g] | % Decrease in glutathione (glutathione [4]; liver, 2 hr) [%] | Glutathione level (glutathione [4]; liver, 2 hr) [µmol/g] | % Decrease in glutathione (glutathione [4]; liver, 12 hr) [%] | Glutathione level (glutathione [4]; liver, 12 hr) [µmol/g] | % Decrease in glutathione (glutathione [4]; plasma, 2 hr) [%] | Glutathione level (glutathione [4]; plasma, 2 hr) [µM] | also measured
N=S(=O)(CC[C@H](N)C(=O)O)CC1CCCCC1 (stereo partly drawn) [CHMSO, L-S-cyclohexylmethyl homocysteine-SR-sulfoximine] | 3.8 | best inhibitors, about equal to BSO |  |  |  |  |  |  |  |  |  |  |  |  |  |  |  |  |  |  | decrease in brain glutathione levels (glutathione [1]; 12 hours, experimental error about 5%): no decrease; decrease in glutathione levels (cardio-toxicity) (glutathione [1]; 2 hours, mice): 8%; detection in mouse bile [2]: CHMSO was detected
CCC(C)CS(=N)(=O)CC[C@H](N)C(=O)O (stereo partly drawn) [2m BSO, L-S-2methylbutyl homocysteine-SR-sulfoximine] | 18.4 |  | 5 | 2.19 | 0 | 2.18 | 14 | 1.15 | 8 | 1.19 | 25 | 2.08 | 0 | 4.10 | 18 | 4.49 | 0 | 5.05 | 15 | 25.2 | % Decrease in glutathione (glutathione [4]; plasma, 12 hr): 8%; Glutathione level (glutathione [4]; plasma, 12 hr): 26.3 µM
CC(C)CCS(=N)(=O)CC[C@H](N)C(=O)O (stereo partly drawn) [3m BSO, L-S-3-methylbutyl homocysteine-SR-sulfoximine] | 0.6 | best inhibitors, about equal to BSO | 10 | 2.09 | 10 | 1.92 | 16 | 1.13 | 57 | 0.55 | 81 | 0.73 | 53 | 1.69 | 77 | 1.26 | 22 | 3.86 | 64 | 10.6 | depletion of liver glutathione compared with BSO (glutathione [4]; liver, after 2 hr): more effective than BSO; % Decrease in glutathione (glutathione [4]; plasma, 12 hr): 30%; Glutathione level (glutathione [4]; plasma, 12 hr): 19.2 µM
CCC(CC)CS(=N)(=O)CC[C@H](N)C(=O)O (stereo partly drawn) [2ETBSO, L-S-2-ethylbutyl homocysteine-SR-sulfoximine] | 43.3 |  |  |  |  |  |  |  |  |  |  |  |  |  |  |  |  |  |  |  | 
N[C@@H](Cc1ccc(N(CCCl)CCCl)cc1)C(=O)O [phenylalanine mustard] |  |  |  |  |  |  |  |  |  |  |  |  |  |  |  |  |  |  |  |  | dose needed to kill the most resistant cells versus most sensitive cell lines [5]: substantially higher; conversion of phenylalanine mustard by resistant cells ([5]; glutathione-dependent dehydrochlorination): converted phenylalanine mustard to a non-toxic hydroxy derivative
